pIC50: −log10 of the molar value.
Legend:
TRESK (KCNK18) = molecular target: T1, TRESK (KCNK18) (Homo sapiens, UniProt Q7Z418); settings: in neurons; read-out: half-effective dose for inhibition of TRESK channels; cited from earlier work
T1 sequence (Q7Z418 1-384): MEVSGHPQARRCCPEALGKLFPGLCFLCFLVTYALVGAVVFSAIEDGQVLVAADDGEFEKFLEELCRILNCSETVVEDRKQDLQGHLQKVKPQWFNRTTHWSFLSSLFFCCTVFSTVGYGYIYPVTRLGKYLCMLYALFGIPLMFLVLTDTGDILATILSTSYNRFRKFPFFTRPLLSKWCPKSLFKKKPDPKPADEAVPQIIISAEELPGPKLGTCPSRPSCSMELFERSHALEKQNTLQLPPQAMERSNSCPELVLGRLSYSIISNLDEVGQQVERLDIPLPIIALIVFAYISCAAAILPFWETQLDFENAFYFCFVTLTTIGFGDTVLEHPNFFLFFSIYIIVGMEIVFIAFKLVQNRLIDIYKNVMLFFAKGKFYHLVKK

[1] = test system: TASK1/TASK3 (KCNK3/KCNK9); settings: in neurons; read-out: half-effective dose for inhibition of TASK1/TASK3 channels; cited from earlier work
[2] = test system: dorsal root ganglion (DRG) neurons; assay: Evoked action potential firing in dorsal root ganglion neurons (whole-cell patch clamp); assay type: cell-based, C57BL/6 mouse; settings: 10 μM; 200 pA, 500 ms current stimulation; FIG. 1 C and D
From the text: (§1) A 4- to 6-week old C57BL/6 mouse (Shanghai Slack Experimental Animal Co., Ltd.) was used for acute isolation of dorsal root ganglion neurons. First, the mouse was sacrificed by breaking the neck, and the surface skin was disinfected with 75% alcohol. The skin was cut from the neck to the buttocks, and the spine from the neck to the waist was cut, and placed in a pre-cooled phosphate buffer (PBS) (Hyclone Company) after excess muscles and blood clots were removed. The spine was cut longitudinally along the midline, and the white spinal cord and blood clots in the middle were removed by ophthalmic tweezers to expose the intervertebral foramen. The dorsal root ganglia were taken out by fine forceps, wherein the large ganglia at the waist should be stripped of their fibrous connections. Then the ganglia were cut into small pieces with microdissection scissors, added to 1 mL of a mixture of collagenase (1 mg/mL) and trypsin (0.25 mg/mL) (Sigma-Aldrich Company) for digestion for 15 min. Then a DMEM/F12 culture medium (Gibco Company) supplemented with 10% fetal calf serum was added thereto to terminate the digestion and dilute the resultant. The cells were pipetted repeatedly, and large tissue blocks were filtered out with a 70 μM cell filter. The remaining liquid was inoculated into a glass slide pre-coated with poly-lysine (Sigma-Aldrich), and cultured in an incubator at 5% CO2 and 37° C. […]

Kv2.1 channel = molecular target: T2, Kv2.1 channel (Homo sapiens, UniProt Q14721); assay: Kv2.1 channel current, transiently expressed in CHO-K1 cells (patch clamp); assay type: cell-based; settings: 10 μM, FIG. 5 A and B
T2 construct: expressed in transfected cells; host or cells: CHO-K1 cells (ATCC), transient co-transfection with EGFP plasmid at 9:1
T2 sequence (Q14721 1-858): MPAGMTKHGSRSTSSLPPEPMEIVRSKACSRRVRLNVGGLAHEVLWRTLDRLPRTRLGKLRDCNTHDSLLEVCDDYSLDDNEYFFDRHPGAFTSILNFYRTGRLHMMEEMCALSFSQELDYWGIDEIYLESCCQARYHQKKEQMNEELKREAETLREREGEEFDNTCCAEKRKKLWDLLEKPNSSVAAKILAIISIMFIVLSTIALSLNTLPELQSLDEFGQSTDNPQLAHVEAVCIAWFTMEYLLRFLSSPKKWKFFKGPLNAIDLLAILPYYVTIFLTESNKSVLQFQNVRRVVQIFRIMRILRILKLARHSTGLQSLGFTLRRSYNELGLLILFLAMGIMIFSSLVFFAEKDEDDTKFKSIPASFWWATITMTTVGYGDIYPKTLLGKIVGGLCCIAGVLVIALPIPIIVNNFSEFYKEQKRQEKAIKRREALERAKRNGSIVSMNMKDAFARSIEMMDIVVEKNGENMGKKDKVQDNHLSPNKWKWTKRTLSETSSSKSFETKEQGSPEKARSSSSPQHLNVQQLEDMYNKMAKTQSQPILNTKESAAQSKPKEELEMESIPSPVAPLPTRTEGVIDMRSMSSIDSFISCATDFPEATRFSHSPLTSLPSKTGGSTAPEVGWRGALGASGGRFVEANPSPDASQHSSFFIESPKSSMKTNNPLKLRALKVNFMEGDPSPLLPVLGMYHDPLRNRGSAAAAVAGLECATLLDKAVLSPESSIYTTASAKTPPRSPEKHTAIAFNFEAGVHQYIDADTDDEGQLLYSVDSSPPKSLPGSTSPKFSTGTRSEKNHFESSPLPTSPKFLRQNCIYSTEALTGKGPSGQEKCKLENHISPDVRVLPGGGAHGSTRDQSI
From the text: (§2) First, TRESK plasmid (a kind gift from Professor Min LI of Johns Hopkins University) and Kv2.1 plasmid (a kind gift from Professor Min LI of Johns Hopkins University) were each co-transfected into CHO-K1 cells (ATCC) with green fluorescent protein EGFP plasmid (a kind gift from Professor Jia LI of SHANGHAI INSTITUTE OF MATERIA MEDICA, CHINESE ACADEMY OF SCIENCES) at a ratio of 9:1, and the cells with green fluorescence were selected under a fluorescence microscope to perform the experiments. The cells were clamped at −70 m V, first hyperpolarized to −130 mV, given a ramp depolarization stimulus to 20 mV, maintained for 100 ms, and then hyperpolarized to 0 mV to record the potassium channel current. 10 μM HJ-70 was administered by perfusion to test the drug efficacy thereof.

[3] = test system: IA current in DRG neurons; assay: Transient outward potassium current (IA) in DRG neurons; assay type: cell-based, C57BL/6 mouse; settings: whole-cell patch clamp; IA = total minus IK; 3 μM and 10 μM in FIG. 2
From the text: as §1, with “min.” for “min. Then a DMEM/F12 culture medium (Gibco Company) supplemented with 10% fetal calf serum was added thereto to terminate the digestion and dilute the resultant. The cells were pipetted repeatedly, and large tissue blocks were filtered out with a 70 μM cell filter. The remaining liquid was inoculated into a glass slide pre-coated with poly-lysine (Sigma-Aldrich), and cultured in an incubator at 5% CO2 and 37° C.”
(§3) The data were processed through Clampfit 10.2, and imported into an Excel table for statistics, and then sorted and analyzed for their significant differences through GraphPad Prim5 software. […] All electrophysiological experiment data were expressed as mean±standard error (mean±S.E.M.).

[4] = test system: IK current in DRG neurons; assay: Delayed inward rectifier potassium current (IK) in DRG neurons; assay type: cell-based, C57BL/6 mouse
From the text: as §1, with “min.” for “min. Then a DMEM/F12 culture medium (Gibco Company) supplemented with 10% fetal calf serum was added thereto to terminate the digestion and dilute the resultant. The cells were pipetted repeatedly, and large tissue blocks were filtered out with a 70 μM cell filter. The remaining liquid was inoculated into a glass slide pre-coated with poly-lysine (Sigma-Aldrich), and cultured in an incubator at 5% CO2 and 37° C.”
as §3

[5] = test system: formaldehyde-induced inflammatory pain; assay: Formalin-induced mouse inflammatory pain model; assay type: in vivo; settings: mice, intraperitoneal injection 30 minutes before 1% formaldehyde; 60 minutes observation
Experimental: A 10% formaldehyde solution was diluted 10 times to prepare a 1% formaldehyde solution. 5% DMSO, 5% Tween-80 and 90% normal saline (a 0.9% NaCl solution) were used to prepare solutions of HJ-70 in 100 mg/kg and 30 mg/kg. Each mouse was administered at a dose of 0.2 mL/10 g at 30 minutes before the experiment, and then 20 μL of 1% formaldehyde solution was injected into the sole of the foot through a microsampling needle to create a formalin model. The number of licking of hind paws, flicking of hind paws, and paw lifting, and the time of paw licking and prolonged paw lifting were recorded within 60 minutes. Paw licking was scored as 3, paw flicking was scored as 2, and paw lifting was scored as 1. The pain behavior score and time were calculated to determine the analgesic activity of HJ-70.

hippocampal neurons = assay: Spontaneous firing of cultured hippocampal neurons (patch clamp); assay type: cell-based, SD rats; settings: 10 μM, FIG. 1 A and B
Experimental: (§4) Whole-cell patch clamp recording was performed through a digital-to-analog converter, the Digidata 1440A (Axon CNS), and a patch clamp amplifier, the Axon patch 700B (Molecular Devices), and the borosilicate glass electrode used in the manual patch clamp experiment was pulled by a Sutter-P1000 electrode puller (Sutter) with a resistance about 3 MΩ. The bath solution was continuously perfused in speed of about 2 mL/min using a BPS perfusion system.
Enzyme and termination solutions with the same concentration were prepared with PBS. 90% DMEM/F12 supplemented with 10% FBS, neuron culture medium (2% B-27, 1% penicillin and streptomycin mixture, Neurobasal-A supplemented with 0.5 mM 1% GlutaMAX), and enzyme and termination solutions (all purchased from Gibco) were preheated in advance. The slides were coated in a 24-well plate in advance with 20 μg/mL polylysine. All operations were performed in a biological safety cabinet. 3 newly born SD rats that were 1-3 days old were taken out the hippocampus according to the above method. The hippocampus was cut into pieces with microdissecting scissors and digested for 8 minutes in the enzyme solution, which was slightly shaken every 2-3 minutes to make the digestion even. […] The suspension was counted on a cell counter, and adjusted to a final concentration of 10^5 cells/mL. […]

[6] = test system: IA current of hippocampal neurons; assay: Transient outward potassium current (IA) in hippocampal neurons; assay type: cell-based, SD rats; settings: 1, 3 and 10 μM, FIG. 3
Experimental: as §4
(§5) The cell were clamped at a holding voltage of −50 mV, hyperpolarized to −110 mV, and then directly depolarized to 40 mV after 600 ms to record the whole cell potassium current (ITotal). To record the delayed […] rectifier potassium current (IK), the cells were first depolarized to −50 mV, maintained for 50 ms, and then depolarized to 40 mV. […]
as §3

TRESK channel = molecular target: T3, TRESK channel (Homo sapiens, UniProt Q7Z418); assay: TRESK channel current, transiently expressed in CHO-K1 cells (patch clamp); assay type: cell-based
T3 construct: expressed in transfected cells; host or cells: CHO-K1 cells (ATCC), transient co-transfection with EGFP plasmid at 9:1
T3 sequence (Q7Z418 1-384): T1 sequence (Q7Z418 1-384)
From the text: as §2

[7] = test system: IK current of hippocampal neurons; assay: Delayed inward rectifier potassium current (IK) in hippocampal neurons; assay type: cell-based, SD rats; settings: 1, 3 and 10 μM, FIG. 3
Experimental: as §4
as §5, with “mV. 10 μM HJ-70 was administered by perfusion to detect drug efficacy, and 5 mM TEA was administered as a positive control.” for “mV.”
as §3

[8] = test system: sodium current in hippocampal neurons; assay: Sodium current in hippocampal neurons; assay type: cell-based, SD rats; settings: 10 μM; membrane potential clamped at −90 mV
Experimental: as §4
9 mg of protease (type XXIII, Sigma) was weighed in advance, 5 mg of bovine serum albumin (BSA, Shanghai Sangon) and 5 mg of trypsin inhibitor (Sigma-Aldrich) were weighed, and 3 mg/mL and 5 mg/mL enzyme and termination solutions were respectively prepared with a dissociation solution, and incubated at 32° C. water bath. 2 SD rats that were 1-7 days old (Shanghai Slack Experimental Animal Co., Ltd.) were decapitated and cut the cortex and skull to take out the complete brain, which was divided into two parts along the midline of the brain, and the hippocampus was located in the temporal lobe of the brain. The temporal lobe cortex was removed to expose the hippocampal gyrus for dissection. Then the hippocampus tissue was slightly moistened with the dissociation solution, and cut into thin slices transversely with a razor blade. […]

Row | inhibition of Kv2.1 channel-mediated currents (Kv2.1 channel) | inhibition of TRESK channel current (TRESK channel; 10 μM, CHO-K1 cells, FIG. 5 C and D) | inhibitory activity on TRESK (K2P) compared with hydroxy-α-sanshool (TRESK channel; comparison with reported half-effective dose of hydroxy-α-sanshool) | SMILES | pIC50 (TRESK (KCNK18)) | pIC50 [1] | effect on evoked action potential firing frequency of DRG [2] | effect on IA current in DRG neurons [3] | reversibility of IK current inhibition after washout ([4]; DRG neurons, washout, FIG. 2 G) | inhibition of IK current in DRG neurons ([4]; whole-cell patch clamp, 3 μM and 10 μM in FIG. 2) | pain behavioral response induced by plantar injection of formalin (licking time, pain score) [5] | effect on spontaneous firing of cultured hippocampal neurons (hippocampal neurons) | effect on IA current of hippocampal neurons [6] | inhibition of IK current of hippocampal neurons [7] | effect on sodium current in hippocampal neurons [8]
1 | – | – | – | C/C=C/C=C/C=C\CC/C=C/C(=O)NCC(C)(C)O [hydroxy-α-sanshool] | ~4.30 | ~4.30 | – | – | – | – | – | – | – | – | –
2 | completely inhibited | almost completely inhibited | stronger than that of hydroxy-α-sanshool | O=c1c2ccccc2nc2n1CCc1c-2n(CCCO)c2ccccc12 [HJ-70, N-13-n-propanol rutaecarpine] | – | – | significantly inhibited | no significant effect | completely eluted | dose-dependently inhibited | dose-dependently alleviate | significantly inhibit | without affecting | reversibly and dose-dependently inhibited | no effect

Source: US20240270745A1, “ISOQUINOLINE ALKALOID COMPOUND, AND PREPARATION METHOD THEREFOR AND USE THEREOF” (SHANGHAI INSTITUTE OF MATERIA MEDICA, CHINESE ACADEMY OF …, priority 2021, published 2024)
